The numbers were not newly measured in US20240293600A1, “COMPOSITIONS, METHODS, AND DEVICES FOR SUSTAINED RELEASE OF AN AGENT” (Board of Supervisors of Louisiana State University and …, priority 2021, published 2024), which cites them from elsewhere.

Consider `O=c1c(O)c(-c2ccc(O)c(O)c2)oc2cc(O)cc(O)c12` [Quercetin, 2-(3,4-dihydroxyphenyl)-3,5,7-trihydroxy-4H-1-benzopyran-4-one], for which the solubility in water result is on record as “practically insoluble in water”.
